target: TNAP (Homo sapiens (Human), UniProt P05186); assay: TNAP (PPi) inhibition assay, pyrophosphate as substrate; assay type: biochemical; settings: not given
Summary of the method: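 Enzyme source was conditioned serum-free medium from COS-1 cells transiently expressing tagged human TNAP, dialyzed against TBS with MgCl2/ZnCl2. Activity on natural substrate PPi at pH 7.4 read as liberated phosphate (Biomol Green).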

Compared with `COc1ccc(OC)c(S(=O)(=O)Nc2cnc3ccc(C(=O)NC4CCCCC4)cc3c2)c1` [Example IX-16, 3-(2,5-Dimethoxy-benzenesulfonylamino)-quinoline-6-carboxylic Acid Cyclohexylamide], `COc1ccc(OC(F)(F)F)cc1S(=O)(=O)Nc1cncc(C(=O)NC2CCCCC2)c1` [Example XII-22, 5-(2-Methoxy-5-(trifluoromethoxy)phenylsulfonamido)-N-cyclohexylnicotinamide] is higher in IC50: < 0.1 µM for the first, 0.1 to 1 µM for the second.

`COC(=O)c1cncc(NS(=O)(=O)c2cc(Br)ccc2OC(F)(F)F)c1` [Example XII-9, Methyl 5-(5-bromo-2-(trifluoromethoxy)phenylsulfonamido)nicotinate] and `CNC(=O)c1cncc(NS(=O)(=O)c2cc(Br)ccc2OC(F)(F)F)c1` [Example XII-14, 5-(5-Bromo-2-(trifluoromethoxy)phenylsulfonamido)-N-methylnicotinamide] fall in the same range of IC50: 0.1 to 1 µM for the first, 0.1 to 1 µM for the second.

`O=C(O)c1cncc(NS(=O)(=O)c2cc(Br)ccc2OC(F)(F)F)c1` [Example XII-10, 5-(5-Bromo-2-(trifluoromethoxy)phenylsulfonamido)nicotinic acid] and `NC(=O)c1cncc(NS(=O)(=O)c2cc(Br)ccc2OC(F)(F)F)c1` [Example XII-13, 5-(5-Bromo-2-(trifluoromethoxy)phenylsulfonamido)nicotinamide] cannot be ordered by IC50: < 0.1 µM for the first, < 0.1 µM for the second.

`O=C(OC1CCCCC1)c1cncc(NS(=O)(=O)c2cc(Br)ccc2OC(F)(F)F)c1` [Example XII-11, Cyclohexyl 5-(5-bromo-2-(trifluoromethoxy)phenylsulfonamido)nicotinate] and `COc1ccc(OC(F)(F)F)cc1S(=O)(=O)Nc1cncc(C(=O)OC2CCCCC2)c1` [Example XII-17, Cyclohexyl 5-(2-methoxy-5-(trifluoromethoxy)phenylsulfonamido)nicotinate] cannot be ordered by IC50: < 0.1 µM for the first, < 0.1 µM for the second.

`O=C(Oc1ccccc1)c1cncc(NS(=O)(=O)c2cc(Br)ccc2OC(F)(F)F)c1` [Example XII-12, Phenyl 5-(5-bromo-2-(trifluoromethoxy)phenylsulfonamido)nicotinate] and `COc1ccc(OC(F)(F)F)cc1S(=O)(=O)Nc1cncc(C(=O)Oc2ccccc2)c1` [Example XII-18, Phenyl 5-(2-methoxy-5-(trifluoromethoxy)phenylsulfonamido)nicotinate] cannot be ordered by IC50: < 0.1 µM for the first, < 0.1 µM for the second.

`COC(=O)c1cncc(NS(=O)(=O)c2cc(OC(F)(F)F)ccc2OC)c1` [Example XII-15, Methyl 5-(2-methoxy-5-(trifluoromethoxy)phenylsulfonamido)nicotinate] and `CNC(=O)c1cncc(NS(=O)(=O)c2cc(OC(F)(F)F)ccc2OC)c1` [Example XII-20, 5-(2-Methoxy-5-(trifluoromethoxy)phenylsulfonamido)-N-methylnicotinamide] fall in the same range of IC50: 0.1 to 1 µM for the first, 0.1 to 1 µM for the second.

Compared with `CCCOC(=O)c1cncc(NS(=O)(=O)c2cc(OC(F)(F)F)ccc2OC)c1` [Example XII-16, Propyl 5-(2-methoxy-5-(trifluoromethoxy)phenylsulfonamido)nicotinate], `CCCNC(=O)c1cncc(NS(=O)(=O)c2cc(OC(F)(F)F)ccc2OC)c1` [Example XII-21, 5-(2-Methoxy-5-(trifluoromethoxy)phenylsulfonamido)-N-propylnicotinamide] is higher in IC50: < 0.1 µM for the first, > 1 µM for the second. The first is the more potent here.

For `COC(=O)c1cncc(N(C)S(=O)(=O)c2cc(OC)ccc2OC(F)(F)F)c1` [Example XII-23, 5-[(5-Methoxy-2-trifluoromethoxy-benzenesulfonyl)-methyl-amino]-nicotinic Acid Methyl Ester], the IC50 was > 1 µM.

target: TNAP human plasma (Homo sapiens, UniProt P05186); assay: not given; assay type: biochemical; settings: substrate pNPP

With `COc1ccc(OC)c(S(=O)(=O)Nc2cnc3ccc(C(=O)NC4CCCCC4)cc3c2)c1` [Example IX-16, 3-(2,5-Dimethoxy-benzenesulfonylamino)-quinoline-6-carboxylic Acid Cyclohexylamide] the IC50 was < 5 µM.
